Experimental data reported in patent US20240287138A1, “CYCLIC PEPTIDES FOR INHIBITING TNF RECEPTOR 1 ACTIVITY” (Merck Sharp & Dohme LLC, priority 2023, published 2024).
Numbered stars: 1 amine (or outer) side, 2 acyl side, 3 side chain; on linkers, the order of the positions; unused ones are H or OH. Bridge positions count the residues as written; N and C are the ends. Square brackets hold non-standard residues; d marks the D form. Peptide text beside a SMILES is read from it. Trp(βS-Me,7-OMe) = COc1cccc2c([C@H](C)[C@H](N)C(=O)O)c[nH]c12; X49 = C[N+](C)(C)CC(=O)N[C@H]1C[C@H](C(=O)[*:2])N([*:1])C1; Trp(1-CH2COOH) = N[C@@H](Cc1cn(CC(=O)O)c2ccccc12)C(=O)O; X69 = O=C(O)C12CC(C[C@H](N[*:1])C(=O)[*:2])(C1)C2; Trp(7-CN) = N#Cc1cccc2c(C[C@H](N)C(=O)O)c[nH]c12; Trp(7-Cl) = N[C@@H](Cc1c[nH]c2c(Cl)cccc12)C(=O)O; Phe(3-CONH2) = NC(=O)c1cccc(C[C@H](N)C(=O)O)c1; Phe(4-CONH2) = NC(=O)c1ccc(C[C@H](N)C(=O)O)cc1; Phe(4-COOH) = N[C@@H](Cc1ccc(C(=O)O)cc1)C(=O)O; Trp(7-aza) = N[C@@H](Cc1c[nH]c2ncccc12)C(=O)O; Pip(5R-OH) = O=C(O)[C@@H]1CC[C@@H](O)CN1; X1 = O=C([C@@H]1CC[C@H](N[*:1])C1)[*:2]; X65 = O=C(CN(CC1(O)CC1)[*:1])[*:2]; Pip(4-aza) = O=C(O)[C@@H]1CNCCN1; 4Pal = N[C@@H](Cc1ccncc1)C(=O)O; NMeE = CN[C@@H](CCC(=O)O)C(=O)O; dHyp = O=C(O)[C@H]1C[C@H](O)CN1; NMeS = CN[C@@H](CO)C(=O)O; Pip = O=C(O)[C@@H]1CCCCN1; αMeS = C[C@](N)(CO)C(=O)O; Nle = CCCC[C@H](N)C(=O)O; Sar = CNCC(=O)O

The compounds below were run against T1, TNFα-induced NF-κB signal transduction pathway (TNFR1 signaling) in THP-1 cells (Homo sapiens, UniProt P19438) (assay: THP-1 Lucia NF-κB reporter cell assay, inhibition of TNFα-induced NF-κB signaling). Conditions: THP-1 NF-κB Lucia reporter cells, 10 ng/mL TNFα, 16-18 h, secreted luciferase; read-out: THP-1 IC50.
T1 sequence (P19438 30-455): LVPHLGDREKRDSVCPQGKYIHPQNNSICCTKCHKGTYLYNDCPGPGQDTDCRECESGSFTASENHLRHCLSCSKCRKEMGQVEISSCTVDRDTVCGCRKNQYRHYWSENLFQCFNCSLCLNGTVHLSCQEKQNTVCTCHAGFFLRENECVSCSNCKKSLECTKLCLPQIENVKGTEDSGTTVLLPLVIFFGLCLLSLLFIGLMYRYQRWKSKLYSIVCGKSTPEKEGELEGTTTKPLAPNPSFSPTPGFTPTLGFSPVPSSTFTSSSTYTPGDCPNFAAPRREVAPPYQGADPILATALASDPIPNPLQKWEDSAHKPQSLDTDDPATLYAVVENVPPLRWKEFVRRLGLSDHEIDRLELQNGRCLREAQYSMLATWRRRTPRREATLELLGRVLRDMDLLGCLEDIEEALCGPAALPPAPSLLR
Type: cell-based
Experimental: C. Procedure for THP-1 Lucia NF-κB cells
The inhibition of TNFα-induced NF-κB signal transduction pathways was evaluated in THP-1 cells. THP-1 cells harboring NF-κB-inducible Lucia™ reporter gene (InvivoGen, cat. #thp1-nfkb) designed for monitoring NF-κB signal transduction pathway was employed to assess the inhibitory effect macrocyclic peptides on TNFR1 signaling. The cells were cultured in media containing RPMI 1640, 2 mM L-glutamine, 25 mM HEPES, 10% heat-inactivated fetal bovine serum with appropriate selection antibiotics. Assays were performed in media that was devoid of selection antibiotics. For profiling, 125 nL of peptides in DMSO (10 mM) were dispensed into Falcon® 384-well Optilux white/clear flat bottom TC-treated microtest microplate (Corning, cat. #353963) using Echo® 555. […] A suspension of 1 million cells/mL was dispensed at 20 μL/well in a 384-well plate to a density of 20,000 cells/well and pre-incubated with peptides at 37° C. for 1 h. Subsequently, 5 μL of TNF containing media (recombinant human TNFα; R&D Systems USA, cat. #210-TA-005/CF) or TNF-free media (for controls) was added to the wells. The final concentration of TNFα in the assay in 10 ng/mL. After o.n. incubation at 37° C. (16-18 h), 5 μL of supernatant was aspirated and transferred to a 384-well microplate (PerkinElmer, cat. #6007680) for measurement of secreted luciferase activity with 25 μL of QUANTI-Luc™ luminescence assay reagent (InvivoGen, cat. #rep-qlc1) in each well. The luminescence was measured in EnVision® Multimode Plate Reader (PerkinElmer). Dose response curves were analyzed using a 4-parameter logistic model to calculate IC50 values, reported in Table 2, using TIBCO® Spotfire® software employing appropriate Minimum and Maximum controls.

| SMILES | IC50 |
| --- | --- |
| CCCC[C@@H]1NC(=O)[C@@H]2CC[C@@H](C2)NC(=O)[C@H]([C@@H](C)c2c[nH]c3c(OC)cccc23)NC(=O)CN(C)C(=O)[C@H](Cc2ccc(C(=O)O)cc2)NC(=O)[C@H](Cc2ccc(C(N)=O)cc2)NC(=O)[C@](C)(CO)NC(=O)[C@H](Cc2c[nH]c3c(C#N)cccc23)NC(=O)[C@H](Cc2ccc(C(=O)O)cc2)NC(=O)[C@H](CC(N)=O)NC(=O)[C@H]2C[C@H](NC(=O)C[N+](C)(C)C)CN2C(=O)[C@H](Cc2cn(CC(=O)O)c3ccccc23)NC(=O)[C@@H]2CNCCN2C(=O)[C@H](Cc2ccncc2)NC1=O [SEQ ID NO. 139] (cyclo([4Pal][Pip(4-aza)][Trp(1-CH2COOH)][X49]N[Phe(4-COOH)][Trp(7-CN)][αMeS][Phe(4-CONH2)][Phe(4-COOH)][Sar][Trp(βS-Me,7-OMe)][X1][Nle])) | 1 nM |
| CCCC[C@@H]1NC(=O)CSC[C@@H](C(N)=O)NC(=O)[C@H]([C@@H](C)c2c[nH]c3c(OC)cccc23)NC(=O)CN(C)C(=O)[C@H](Cc2cccc(C(N)=O)c2)NC(=O)[C@H](Cc2ccc(C(=O)O)cc2)NC(=O)[C@](C)(CO)NC(=O)[C@H](Cc2c[nH]c3c(Cl)cccc23)NC(=O)[C@H](Cc2ccncc2)NC(=O)[C@H](CC(N)=O)NC(=O)[C@H](CCC(=O)O)N(C)C(=O)[C@H](Cc2c[nH]c3ccccc23)NC(=O)[C@H](CO)N(C)C(=O)[C@H](Cc2ccncc2)NC1=O [SEQ ID NO. 270] ({CH2CO}-[Nle][4Pal][NMeS]W[NMeE]N[4Pal][Trp(7-Cl)][αMeS][Phe(4-COOH)][Phe(3-CONH2)][Sar][Trp(βS-Me,7-OMe)]C-NH2; thioether N-14) | 2.2 nM |

What follows are compounds tested against T2, human soluble TNFR1 (sTNFR1) (Homo sapiens, UniProt P19438) (assay: Human sTNFR1-peptide displacement assay (LanthaScreen Eu TR-FRET binding assay)). Conditions: not given.
T2 construct: made in house; host or cells: Sf21 (baculovirus)
T2 sequence (P19438 with tags, fused parts or gaps): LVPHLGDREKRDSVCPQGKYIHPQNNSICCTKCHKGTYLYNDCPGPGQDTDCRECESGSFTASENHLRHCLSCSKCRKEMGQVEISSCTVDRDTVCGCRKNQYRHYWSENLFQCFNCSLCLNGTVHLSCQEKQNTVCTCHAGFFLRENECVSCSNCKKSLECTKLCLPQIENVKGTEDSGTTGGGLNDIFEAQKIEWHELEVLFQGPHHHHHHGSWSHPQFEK
Experimental: A. Procedure for Human sTNFR1-Peptide Displacement Assay
The affinity was determined using LanthaScreen Eu-based time-resolved fluorescence resonance energy transfer (TR-FRET)-based binding assay.
A TR-FRET assay measuring the displacement of biotinylated peptide SEQ ID NO. 1 from human soluble TNFR1 (sTNFR1) in a pre-formed complex by a macrocyclic peptide yields the affinity (Kd^app) of the cyclic peptide for sTNFR1. The reagents for the assay include: the C′-terminally 6His-tagged sTNFR1 (residues 1-211) protein purified from a Sf21 baculovirus expression system, the biotin-tagged B0372 peptide described in section “Preparation of Final Compounds”, part E, the LanthaScreen™ anti-His Tag Europium donor (Life Technologies Corporation (San Diego, CA), cat. #PV5597), and a streptavidin-conjugate Alexa Fluor™ 647 acceptor (Invitrogen (Waltham, MA), cat. #S32357). Time-resolved TR-FRET is achieved when sTNFR1 is bound to biotinylated peptide SEQ ID NO. 1 through coupling of the donor and acceptor FRET pair.
100 nM biotinylated peptide SEQ ID NO. […] 100 nM biotinylated peptide SEQ ID NO. 1 was chosen as it reflects the ˜Kd for this complex. After 30 min at ambient temperature, each test peptide (2 mM stock in DMSO) is titrated in a 20 point, ˜3-fold discrete dose-response using an acoustic-dispense liquid handler. Specifically, 80 nL of peptide/DMSO is transferred into a ProxiPlate-384 Plus 384-well assay plate (PerkinElmer, cat. #6008289). To this plate, 8 μL of the previously formed sTNFR 1-biotinylated peptide SEQ ID NO. 1 complex is added and allowed to reach binding equilibrium with the test peptide at ambient temperature for 90 min.
The TR-FRET signal is measured with the following EnVision® settings: excitation laser at 337 nm; emission1=615 nm, emission2=665 nm, LANCE/DELFIA dichroic mirror, delay time=[…]. The signal of each well is determined as the ratio of the emission at 665 nm to that at 615 nm. Percent displacement is determined by normalization to control wells containing DMSO (0%) or a saturating concentration of a displaceable peptide (100%). The %-effect as a function of peptide concentration is fit to a five-parameter logistic fit based on the Morrison equation to account for tight binding kinetics.

| SMILES | Kd |
| --- | --- |
| CCCC[C@@H]1NC(=O)CSC[C@@H](C(N)=O)NC(=O)[C@H]([C@@H](C)c2c[nH]c3c(OC)cccc23)NC(=O)CN(C)C(=O)[C@H](Cc2ccc(O)cc2)NC(=O)[C@H](Cc2ccc(C(=O)O)cc2)NC(=O)[C@](C)(CO)NC(=O)[C@H](Cc2c[nH]c3c(Cl)cccc23)NC(=O)[C@H](Cc2ccncc2)NC(=O)[C@H](CC(N)=O)NC(=O)CN(CC2(O)CC2)C(=O)[C@H](Cc2c[nH]c3ccccc23)NC(=O)[C@@H]2CCCCN2C(=O)[C@H](Cc2ccncc2)NC1=O [SEQ ID NO. 13] ({CH2CO}-[Nle][4Pal][Pip]W[X65]N[4Pal][Trp(7-Cl)][αMeS][Phe(4-COOH)]Y[Sar][Trp(βS-Me,7-OMe)]C-NH2; thioether N-14) | 1 nM |
| CCCC[C@@H]1NC(=O)[C@@H]2CC[C@@H](C2)NC(=O)[C@H]([C@@H](C)c2c[nH]c3c(OC)cccc23)NC(=O)CN(C)C(=O)[C@H](Cc2ccc(C(N)=O)cc2)NC(=O)[C@H](Cc2ccc(C(N)=O)cc2)NC(=O)[C@](C)(CO)NC(=O)[C@H](Cc2c[nH]c3c(C#N)cccc23)NC(=O)[C@H](CC23CC(C(=O)O)(C2)C3)NC(=O)[C@H](CC(N)=O)NC(=O)[C@H]2C[C@H](O)CN2C(=O)[C@H](Cc2c[nH]c3ncccc23)NC(=O)[C@@H]2CC[C@@H](O)CN2C(=O)[C@H](Cc2ccncc2)NC1=O [SEQ ID NO. 26] (cyclo([4Pal][Pip(5R-OH)][Trp(7-aza)][dHyp]N[X69][Trp(7-CN)][αMeS][Phe(4-CONH2)][Phe(4-CONH2)][Sar][Trp(βS-Me,7-OMe)][X1][Nle])) | 0.24 nM |
